These results are taken from PubChem BioAssay (NCI).

Where “and” joins values, the source holds several entries; their conditions need not be identical. Identical values can stand only once.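 Five concentrations, 48 hours, 96-well plates. Abbreviation: GI50, concentration required for 50% inhibition of growth. TGI: concentration producing complete growth inhibition.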

Holding throughout (assay): inhibition of tumour cell growth, NCI panel, 48 h
Experiment [1] deals with DLD-1 colon.
The subject of experiment [2] is IGROV1 ovarian.
Experiment [3] relates to MDA-MB-231 breast.
The subject of experiment [4] is NCI-H23 lung.
Experiment [5] has as its system PC-3 prostate.
In experiment [6] the test system is RPMI-8226 leukemia.
Experiment [7] has as its system RXF 393 renal.
Experiment [8] relates to SNB-19 CNS.
The subject of experiment [9] is SNB-75 CNS.
Experiment [10] relates to UACC-62 melanoma.
In experiment [11] the test system is XF 498 CNS.

For the molecule `O=C1c2c(O)cccc2-c2nn(CCNCCO)c3ccc(NCCNCCO)c1c23`, the TGI is above 41.3 µM in experiment [1]; 5.8 µM in [2]; 2.51 µM in experiment [3]; 0.592 µM in [4]; 2.16 µM in experiment [5]; 7.65 µM in experiment [6]. Besides, the TGI in experiment [7] came out at 1.37 µM; in experiment [8] it was 0.405 µM; in [9], 1.14 µM; in experiment [10] it was 0.344 µM; in [11], 0.379 µM.
Turning to `CN=C(/N=c1\ssc(=NC)n1C)N(C)C`, the TGI in experiment [1], in experiment [2], in experiment [4], in experiment [6], in [7] and in experiment [8] was above 100 µM in each case. In addition, the TGI in experiment [9], in [10] and in experiment [11] was above 100 µM throughout.
With `COc1cccc(N[C@@H]2c3cc4c(cc3C(c3cc(OC)c(O)c(OC)c3)[C@H]3C(=O)OCC32)OCO4)c1` (some centres undefined), the TGI in experiment [1] amounted to 8.35 µM; in experiment [2], 33.8 µM; in [4] it was 9.96 µM; in experiment [6] it was 2.08 µM; in [7] it was 7.12 µM; in [8], 27.7 µM. In addition, the TGI in experiment [10] stood at 2.83 µM; in experiment [11], 23.9 µM.
For `O=C(O)c1ccccc1N=Cc1ccc(N(CCCl)CCCl)cc1`, the TGI in [1] was above 100 µM; in experiment [2], above 100 µM; in [4], above 100 µM; in [6] it was above 100 µM; in experiment [7] it was above 73.2 µM; in experiment [8], above 100 µM. The TGI in experiment [9] and in experiment [10] was above 100 µM in each case.
Turning to `NCc1cccc(O)c1O`, the TGI in experiment [1], in experiment [6], in experiment [7], in [8], in [9] and in [10] was above 100 µM each time. The same molecule returned a TGI in experiment [11] above 100 µM.
As to `Cc1ccccc1-c1nc2c(C(=O)NCCN(C)C)cccc2[nH]1`, the TGI in experiment [1] is above 100 µM; in experiment [2], above 100 µM; in experiment [4] it was above 100 µM; in [6] it was 73.4 µM; in [7], above 100 µM; in [8], above 100 µM. Besides, the TGI in experiment [9], in experiment [10] and in experiment [11] was above 100 µM throughout.
`CC1(C)CC2(CC(C)(C)N1O)NC(=O)OC2=O`: the TGI in [1], in [2], in experiment [4], in [6], in [7] and in experiment [8] was above 100 µM throughout. Also, the TGI in experiment [9], in experiment [10] and in [11] was above 100 µM in each case.
For the molecule `COc1ccc(Nc2ccc3ccccc3c2-c2c(O)ccc3ccccc23)cc1`, the TGI stood at 23 µM in experiment [2]; 45.7 µM in [3]; 32.4 µM in experiment [4]; 29.3 µM in [5]; 27.4 µM in experiment [6]; 49.8 µM in experiment [7]. The TGI was 37.2 µM in [8], 46.2 µM in experiment [9] and above 100 µM in [10].
With `C/C(=N\Nc1nc2ccccc2n1C)c1cc2ccccc2cn1`, the TGI in experiment [2] was 0.423 µM; in experiment [3] it was 3.21 µM; in experiment [4], 7.4 µM; in [5] it was above 20.7 µM; in [6], 1.63 µM; in [7] it was 7.7 µM. The TGI in [8] is 14.6 µM; in experiment [9], 11.8 µM; in experiment [10], 0.94 µM.
Regarding `CN(C)CCCNc1ccc2nnn3c4ccc(O)cc4c(=O)c1c23`, the TGI in [1] was 18.1 µM; in experiment [2] it was 17.9 µM; in experiment [3], 23.6 µM; in [4], 18.3 µM; in [5] it was 17.5 µM; in [6], 29.6 µM. The TGI in experiment [7] turned out to be 1.16 µM; in experiment [8], 23.7 µM; in experiment [9], 20.2 µM; in experiment [10] it was 23.7 µM.
Consider `O=C(N/N=C/C=C/c1ccccc1)c1ccccc1Nc1ccccc1C(=O)N/N=C/C=C/c1ccccc1`, for which the TGI in experiment [2], in [3], in experiment [4], in experiment [5], in experiment [6] and in [7] was above 100 µM each time. For the same molecule, the TGI in [8], in experiment [9] and in experiment [10] was above 100 µM in each case.
As for `C#CCn1c(=O)c(C)cn(/C(=C\C(=O)OCC)C(=O)OCC)c1=O`, the TGI in experiment [2] is 15.3 µM; in [3], 31.2 µM; in experiment [4] it was 27.3 µM; in experiment [5], 27.6 µM; in experiment [6], above 23.2 µM; in experiment [7] it was 4.49 µM. Moreover, the figures for the TGI in experiment [8], in experiment [9] and in experiment [10] were 39.4 µM, 36 µM and 23 µM, respectively.
In the case of `COc1cccc(C=O)c1[O-].[O]=[U](=[O])([OH2+])[OH2+]`, the TGI in [1] was above 100 µM; in experiment [2] it was above 100 µM; in experiment [4], above 100 µM; in [6], above 100 µM; in experiment [7], 94.1 µM; in experiment [8], 45.5 µM. The results for the TGI in [9] and in experiment [10] were 81.3 µM and 57.6 µM, respectively.
Consider `c1ccc(/C(=N/Nc2ccncn2)c2ccccn2)cc1`, for which the TGI is 53.6 µM in experiment [2]; above 100 µM in [3]; 46.5 µM in experiment [4]; above 100 µM in experiment [5]; above 100 µM in experiment [6]; above 100 µM in experiment [7]. Further, the TGI in experiment [8] was above 100 µM; in [9], 57.8 µM; in experiment [10], above 100 µM.
With `CC(=O)NC1C(OCc2ccccc2)OC(CO)C(O)C1OC(C)C(=O)NC(C(=O)NC(CCC(=O)NCCCCNc1c2ccccc2nc2cccc([N+](=O)[O-])c12)C(N)=O)C(C)C` (centres undefined), the TGI in experiment [2] is 10.4 µM; in experiment [3], 25.5 µM; in experiment [4], 4.75 µM; in [5], above 30.8 µM; in [6], 2.39 µM; in experiment [7], 3.56 µM. In addition, the TGI came to 34.5 µM in experiment [8], 10.5 µM in [9] and 5.03 µM in [10].
On to `COC[C@@H](N=Cc1ccc([N+](=O)[O-])cc1)C(C)C`, for which the TGI in [2], in experiment [3], in experiment [4], in experiment [5], in experiment [6] and in [7] was above 100 µM each time. Also, the TGI in [8], in experiment [9] and in [10] was above 100 µM each time.
As to `Cc1nn(-c2ccccc2)c(C)c1/C=N/N=C1\S/C(=C\c2ccc(Cl)cc2)C(=O)N1c1ccccc1`, the TGI in experiment [2] is above 100 µM; in [3], above 100 µM; in experiment [4], above 100 µM; in experiment [5] it was above 100 µM; in experiment [6] it was above 100 µM; in experiment [7] it was 84.3 µM. Moreover, the figures for the TGI in [8], in experiment [9] and in experiment [10] were above 100 µM, 71.8 µM and above 100 µM, respectively.
Regarding `CC(C)=CCNc1nc(Cl)nc2nc[nH]c12`, the TGI is above 100 µM in [2]; 68.2 µM in [3]; above 100 µM in experiment [4]; above 100 µM in [5]; above 100 µM in experiment [6]; 62 µM in [7]. Also, the TGI in experiment [8], in experiment [9] and in [10] was above 100 µM each time.
For `CCCCCCCCCCCCCCCCCCNc1nc(=O)n(C2CC(O)C(COP(=O)(O)O)O2)cc1F` (centres undefined), the TGI in experiment [2], in [3], in experiment [4], in [5], in [6] and in [7] was above 100 µM each time. Besides, the TGI in experiment [8], in experiment [9] and in [10] was above 100 µM in each case.
Regarding `CC1=C2C(=CO[C@H](C)[C@H]2C)C(=O)C(C(=O)O)=C1O`, the TGI in experiment [1] is 66.9 µM; in [2] it was 69.6 µM and 49.4 µM; in [3] it was 58.5 µM; in [4], 71.4 µM and 58.4 µM; in [5], above 85.3 µM; in experiment [6], 63.3 µM and 58.3 µM. The TGI in experiment [7] was 35.8 µM and 48.4 µM; in [8] it was 55.6 µM and > 67.7 µM; in experiment [9] it was 111 µM and > 62.1 µM; in experiment [10] it was 85.6 µM and 40.4 µM; in experiment [11] it was 13.6 µM. The GI50 is 24.1 µM in experiment [4]; 25.4 µM in experiment [6]; 21.9 µM in experiment [7]; 27.9 µM in experiment [8]; 21.2 µM in [9].
Turning to `CCOC(=O)c1cc2c([N+](=O)[O-])c(N)ccc2s1`, the TGI in [2], in experiment [3], in experiment [4], in experiment [5], in experiment [6] and in [7] was above 100 µM throughout. Also, the TGI in experiment [8], in experiment [9] and in experiment [10] was above 100 µM each time.
